From patent US20260183297A1, “SELECTION OF PATIENTS FOR THE TREATMENT OF FADS1-MEDIATED DISEASES OR DISORDERS USING FADS-1 INHIBITORS” (AMGEN INC., priority 2022, published 2026)

Columns and labels:
FADS2 = target: T1, FADS2 (Mus musculus, UniProt Q9Z0R9); experiment: FADS2 inhibition by SC-26196 in DIO mice, plasma PUFA ratios; assay type: in vivo
T1 construct: from tissue; host or cells: living DIO mice; plasma GLA/LA and AA/DGLA ratios
T1 sequence (Q9Z0R9 1-444): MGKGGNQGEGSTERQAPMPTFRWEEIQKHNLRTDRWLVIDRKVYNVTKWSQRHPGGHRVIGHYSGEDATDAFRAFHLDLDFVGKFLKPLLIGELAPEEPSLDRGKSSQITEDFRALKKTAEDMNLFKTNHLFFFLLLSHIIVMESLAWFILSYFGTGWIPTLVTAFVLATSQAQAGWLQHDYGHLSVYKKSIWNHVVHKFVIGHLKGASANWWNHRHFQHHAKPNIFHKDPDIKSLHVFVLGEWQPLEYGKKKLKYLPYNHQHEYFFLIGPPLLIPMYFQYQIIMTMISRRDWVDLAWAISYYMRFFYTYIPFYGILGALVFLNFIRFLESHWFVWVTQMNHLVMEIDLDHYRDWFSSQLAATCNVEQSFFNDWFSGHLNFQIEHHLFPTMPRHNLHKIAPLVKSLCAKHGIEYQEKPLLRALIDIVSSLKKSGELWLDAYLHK
Method: FIG. 12 One-way ANOVA with Dunnett's test for multiple comparisons, *P<0.05, **P<0.01, ***P<0.001, ****P<0.0001.
Ten microliter of plasma or PUFA standards diluted in surrogate matrix (60 g/l bovine serum albumin in Dulbecco's phosphate-buffered saline [DPBS]) were mixed with 10 μl of ALA-d14 as the internal stand in a 96-well plate. 100 μl of 2N NaOH was added to the mixture for subsequent saponification at 65° C. for 1 hour. The mixture was then acidified with 50 μl of formic acid followed by two consecutive 500 μl hexane extractions. The organic extracts from the two extractions were combined and the solvent was evaporated under nitrogen gas. Extracts were then resuspended in 250 μl of 90% methanol and analyzed by liquid chromatography with tandem mass spectrometry (LC-MS/MS) for the following PUFAs: LA, GLA, DGLA, and AA, with ALA-d14 as the internal standard. The PUFA peak areas were quantified by using the Analyst software (SCIEX, Framingham, MA).

human FADS1 = target: T2, human FADS1 (Homo sapiens, UniProt O60427); experiment: In vitro FADS1 activity assay (HEK 293 cells with FADS1 BacMam, 13C5-DGLA substrate); assay type: cell-based; details: in vitro human FADS1 activity assay
T2 construct: expressed in transfected cells; host or cells: HEK 293 cells transduced with FADS1 BacMam (MOI 25)
T2 sequence (O60427 whole entry): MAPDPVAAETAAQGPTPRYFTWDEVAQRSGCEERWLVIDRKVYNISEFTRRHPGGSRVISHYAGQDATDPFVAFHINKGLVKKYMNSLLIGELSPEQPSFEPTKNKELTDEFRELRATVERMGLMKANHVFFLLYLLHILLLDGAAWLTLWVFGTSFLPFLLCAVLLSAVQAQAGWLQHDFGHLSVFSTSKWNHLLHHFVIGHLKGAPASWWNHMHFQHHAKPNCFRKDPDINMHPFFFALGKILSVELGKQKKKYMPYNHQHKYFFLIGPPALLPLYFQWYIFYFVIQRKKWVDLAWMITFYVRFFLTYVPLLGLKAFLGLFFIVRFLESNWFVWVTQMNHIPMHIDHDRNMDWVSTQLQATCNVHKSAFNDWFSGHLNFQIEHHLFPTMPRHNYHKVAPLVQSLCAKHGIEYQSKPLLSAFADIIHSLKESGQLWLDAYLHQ
Method: HEK 293 cells in Dulbecco's Modified Eagle's medium (DMEM), 10% fetal bovine serum (FBS), 1× penicillin-streptomycin-glutamine (PSG) were mixed with FADS1 BacMam or FADS2 BacMam reagents at multiplicity of infection (MOI) ratio of 25 and plated in a in 96-well poly-D-lysine-coated plate. Plates were incubated in a 37° C., 5% CO2 for 24 hours. Cells were washed with DPBS and cells were incubated with 90 ml of compound dilution in DPBS at 5% CO2, 37° C. for 20 minutes. Ten L of the substrate, ^13C5-DGLA (FADS1), or 13C-LA (FADS2) diluted in DPBS were added to the cells and incubated at 5% CO2, 37° C. for 30 minutes (FADS1) or 45 minutes (FADS2). Cells were then washed with DPBS and 50 μL of 2N NaOH were added to each well and incubated in a 65° C. oven for 1 hour for the saponification reaction. […] Samples were then subjected to LC-MS/MS detection for the following analytes for the FADS1 reaction: ^13C5-DGLA and ^13C5-AA or the following analytes for the FADS2 reaction: ^13C18-LA, ^13C18-GLA, ^13C18-DGLA and ^13C18-AA. Samples were injected onto a Poroshell 120 EC-C18 3.0×50 mm, 1.9 um id column (Agilent, Santa Clara, CA).

human FADS2 = target: T3, human FADS2 (Homo sapiens, UniProt O95864); experiment: In vitro FADS2 activity assay (HEK 293 cells with FADS2 BacMam, 13C-LA substrate); assay type: cell-based
T3 construct: expressed in transfected cells; host or cells: HEK 293 cells transduced with FADS2 BacMam (MOI 25)
T3 sequence (O95864 1-444): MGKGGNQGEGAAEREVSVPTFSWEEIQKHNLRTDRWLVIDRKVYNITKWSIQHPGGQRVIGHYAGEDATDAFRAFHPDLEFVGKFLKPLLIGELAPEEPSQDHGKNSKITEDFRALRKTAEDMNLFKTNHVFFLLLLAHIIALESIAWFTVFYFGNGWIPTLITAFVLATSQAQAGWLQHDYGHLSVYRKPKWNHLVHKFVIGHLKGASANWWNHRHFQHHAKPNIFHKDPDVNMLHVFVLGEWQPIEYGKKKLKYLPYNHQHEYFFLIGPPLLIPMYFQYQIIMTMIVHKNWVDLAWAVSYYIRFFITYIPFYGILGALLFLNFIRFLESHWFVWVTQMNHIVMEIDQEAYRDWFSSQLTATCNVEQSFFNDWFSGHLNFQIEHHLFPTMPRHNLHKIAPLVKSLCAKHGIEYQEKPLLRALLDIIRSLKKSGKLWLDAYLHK
Method: (§1) HEK 293 cells in Dulbecco's Modified Eagle's medium (DMEM), 10% fetal bovine serum (FBS), 1× penicillin-streptomycin-glutamine (PSG) were mixed with FADS1 BacMam or FADS2 BacMam reagents at multiplicity of infection (MOI) ratio of 25 and plated in a in 96-well poly-D-lysine-coated plate. Plates were incubated in a 37° C., 5% CO2 for 24 hours. Cells were washed with DPBS and cells were incubated with […] of compound dilution in DPBS at 5% CO2, 37° C. for 20 minutes. Ten L of the substrate, ^13C5-DGLA (FADS1), or 13C-LA (FADS2) diluted in DPBS were added to the cells and incubated at 5% CO2, 37° C. for 30 minutes (FADS1) or 45 minutes (FADS2). Cells were then washed with DPBS and 50 μL of 2N NaOH were added to each well and incubated in a 65° C. oven for 1 hour for the saponification reaction. After cooling to room temperature, 22 μl of formic acid was added followed by the addition of 113 μl of acetonitrile with 1.5 μM ALA-d14 as the internal standard. Samples were then subjected to LC-MS/MS detection for the following analytes for the FADS1 reaction: ^13C5-DGLA and ^13C5-AA or the following analytes for the FADS2 reaction: ^13C18-LA, ^13C18-GLA, ^13C18-DGLA and ^13C18-AA. […]
(§2) The analyte peak areas were quantified by using the Analyst software (SCIEX, Framingham, MA). The percent of substrate to product conversion relative to untreated control were calculated (percent of control [POC]). […]

mouse FADS1 = target: T4, mouse FADS1 (Mus musculus, UniProt Q920L1); experiment: Mouse FADS1 cell-based assay; details: in vitro mouse FADS1 activity assay
T4 sequence (Q920L1 1-447): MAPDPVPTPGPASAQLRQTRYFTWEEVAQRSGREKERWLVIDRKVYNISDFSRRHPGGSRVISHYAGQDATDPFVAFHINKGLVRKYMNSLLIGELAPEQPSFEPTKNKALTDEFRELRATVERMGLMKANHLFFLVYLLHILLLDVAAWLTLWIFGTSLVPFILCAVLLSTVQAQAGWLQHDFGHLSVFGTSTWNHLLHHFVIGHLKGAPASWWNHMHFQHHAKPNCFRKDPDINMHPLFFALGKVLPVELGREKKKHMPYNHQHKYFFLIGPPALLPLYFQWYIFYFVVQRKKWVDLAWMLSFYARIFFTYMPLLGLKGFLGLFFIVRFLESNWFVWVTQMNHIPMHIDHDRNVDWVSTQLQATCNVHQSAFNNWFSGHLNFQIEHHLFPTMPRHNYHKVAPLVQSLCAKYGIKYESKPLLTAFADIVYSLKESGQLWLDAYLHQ
Method: as §1, §2

plasma AA/DGLA ratio (FADS2): increased | plasma GLA/LA ratio (FADS2): affects | effect on FADS1 activity (human FADS1): does not affect FADS1 activity | effect on FADS2 activity (human FADS2): FADS2 specific inhibitor | effect on FADS1 activity (mouse FADS1): does not affect FADS1 activity
Structure (SMILES): N#CC(CCCN1CCN(/N=C/c2cccnc2)CC1)(c1ccccc1)c1ccccc1 [SC-26196]
